Laboratory results reported in patent publication US5726181A, “Formulations and compositions of poorly water soluble camptothecin derivatives” (BioNumerik Pharmaceuticals, Inc., priority 1995, dated 1998).
Entries after “also recorded” stand apart in the source; their conditions may differ. Read-outs that look alike come from different tables or passages of the source.

Legend:
[1] = water; cited from earlier work
[2] = Lactone form / chemical stability in formulation; type: physicochemical
[3] = test system: human patients with cancer; details: Phase I and Phase II human trials; cited from earlier work
human patients [4] = details: cited from earlier work
human patients [5] = details: cited from earlier work; remark: listed apart in the source
[6] = test system: advanced gastrointestinal cancer; details: cited from earlier work
malignant melanoma = details: cited from earlier work
[7] = cited from earlier work
[8] = oral vs intravenous solution; cited from earlier work
[9] = 15 mg/m^2 × 5, 9 patients treated
[10] = 17 mg/m^2 × 5, 5 patients treated
[11] = 20 mg/m^2 × 5, 10 patients treated
[12] = 5-Day course (27 patients), 4 wks
[13] = 5-Day course (27 patients), 8 wks
[14] = 5-Day course (27 patients), 12 wks
[15] = single dose 110 mg/m^2, 2 patients treated
[16] = single dose 120 mg/m^2, 7 patients treated
[17] = single dose 180 mg/m^2, 9 patients treated
[18] = single-dose method (34 patients), 3 wks
[19] = single-dose method (34 patients), 6 wks
[20] = single-dose method (34 patients), 9 wks
[21] = single-dose method (34 patients), 12 wks
[22] = 90-360 mg/m^2 every 2 weeks, fifteen patients

## CCc1c2c(nc3ccccc13)-c1cc3c(c(=O)n1C2)COC(=O)[C@]3(O)CC [7-ethyl camptothecin]
[1]
  Water solubility: less than 5 micrograms per milliliter of water

## CCc1c2c(nc3ccc(O)cc13)-c1cc3c(c(=O)n1C2)COC(=O)[C@]3(O)CC [7-ethyl-10-hydroxy camptothecin]
[1]
  Water solubility: less than 5 micrograms per milliliter of water

## CCC1(O)C(=O)OCc2c1cc1n(c2=O)Cc2cc3cc4c(cc3nc2-1)OCO4 (stereo not shown) [10,11-Methylenedioxy camptothecin, 10,11-methylenedioxy camptothecin]
[1]
  Water solubility: less than 5 micrograms per milliliter of water

## CCC1(O)C(=O)OCc2c1cc1n(c2=O)Cc2cc3cc4c(cc3nc2-1)OCCO4 (stereo not shown) [10,11-ethylenedioxy-camptothecin, 10,11-ethylenedioxy camptothecin]
[1]
  Water solubility: less than 5 micrograms per milliliter of water

## CN1CCCC1=O [NMP, N-methyl-2-pyrrolidinone]
[2]
  Chemical reactivity of NMP with HLCD: inert with respect to undesirable chemical reactions with HLCD; also recorded: chemically inert with respect to poorly water soluble camptothecins

## CC[C@@](O)(C(=O)O)c1cc2n(c(=O)c1CO)Cc1cc3ccccc3nc1-2 [SCPT]
[3]
  Antitumor activity in early trials: lack of consistent antitumor activity
  Toxicity in early trials: unpredictable and severe myelosuppression,gastrointestinal toxicity, hemorrhagic cystitis, and alopecia
Human patients [4]; 5 patients with impaired urinary excretion excluded, i.v., 2880 min
  Mean urine recovery of camptothecin, excluding patients with impaired urinary excretion: 22.8%
Human patients [4]; after i.v. drug administration
  Urinary appearance of unmetabolized camptothecin: unmetabolized camptothecin in high concentrations rapidly appeared in the urine
Human patients [4]; first 48 hours, i.v.
  Mean urine recovery of camptothecin: 17.4%
  Urine recovery of camptothecin (range): 3.6-38.9%
Human patients [4]; i.v.
  Time course of urinary drug excretion: most of the drug excretion occurring in the initial 12 hours
Human patients [4]; moderately dehydrated patients
  Sterile hemorrhagic cystitis: 3 patients
Human patients [5]; 20 to 30 mg/m^2
  Bladder toxicity, dose limiting: dose limiting in three patients
Human patients [5]; 44 and 30 mg/m^2
  Bladder toxicity, additional patients: two additional patients
Human patients [5]; daily treatment, total dose of 100 mg/m^2
  Leukopenia, incidence: four of six patients
Human patients [5]; daily vs weekly treatment
  Leukopenia, duration: more prolonged after daily treatment than after weekly treatment
Human patients [5]; dose-limiting toxic effect
  Leukopenia: Reversible leukopenia was the major dose-limiting toxic effect
Human patients [5]; eight patients with measurable disease, 5-day courses at dose levels associated with toxicity
  Clinical benefit: No clinical benefit was observed
Human patients [5]; weekly courses, evaluable patients
  Clinical responses: two of ten patients
[6]; 11 mg/m^2 × 5, 2 patients treated
  No. of patients with Cystitis: 1 patients
[6]; [9]
  No. of patients with Cystitis: 4 patients
  No. of patients with Diarrhea: 1 patients
[6]; [10]
  No. of patients with Cystitis: 2 patients
  No. of patients with Diarrhea: 4 patients
[6]; [11]
  No. of patients with Cystitis: 6 patients
  No. of patients with Diarrhea: 4 patients
[6]; 22 mg/m^2 × 5, 1 patient treated
  No. of patients with Diarrhea: 1 patients
[6]; 3 months, 61 patients
  Improvement at 3 months: none showed improvement at 3 months
[6]; [12]
  Objective Responses: Improved: 1 patients
  Objective Responses: Stable: 12 patients
  Objective Responses: Worse: 14 patients
[6]; [13]
  Objective Responses: Stable: 7 patients
  Objective Responses: Worse: 20 patients
[6]; [14]
  Objective Responses: Stable: 6 patients
  Objective Responses: Worse: 21 patients
[6]; 5-Day course, P < 0.05
  Cystitis (% of 27 patients): 48%
[6]; Single dose
  Cystitis (% of 34 patients): 24%
[6]; after 2 months (8 or 9 weeks), 61 patients
  Partial objective improvement: only two of their 61 patients
[6]; at 3 wks only
  Patients with 25%-50% response: 3 patients
[6]; higher doses
  Diarrhea, severity and persistence: could be quite severe to the point of fecal incontinence and persistent for as long as 4 weeks
[6]; in vivo
  Onset of cystitis after treatment: 7 to 10 days
[6]; prolonged (5-day) vs single-dose schedule at a given total dose
  Severity of toxicity by schedule: more prolonged schedule produced more severe toxicity at a given total dose level
[6]; single dose 90 mg/m^2, 10 patients treated
  No. of patients with Cystitis: 1 patients
[6]; single dose 100 mg/m^2, 6 patients treated
  No. of patients with Cystitis: 2 patients
[6]; [15]
  No. of patients with Cystitis: 1 patients
  No. of patients with Diarrhea: 1 patients
[6]; [16]
  No. of patients with Cystitis: 2 patients
  No. of patients with Diarrhea: 4 patients
[6]; [17]
  No. of patients with Cystitis: 3 patients
  No. of patients with Diarrhea: 2 patients
[6]; [18]
  Objective Responses: Improved: 4 patients
  Objective Responses: Stable: 17 patients
  Objective Responses: Worse: 13 patients
[6]; [19]
  Objective Responses: Improved: 2 patients
  Objective Responses: Stable: 1i
  Objective Responses: Worse: 21 patients
[6]; [20]
  Objective Responses: Improved: 2 patients
  Objective Responses: Stable: 8 patients
  Objective Responses: Worse: 24 patients
[6]; [21]
  Objective Responses: Stable: 6 patients
  Objective Responses: Worse: 28 patients
Malignant melanoma; [22]
  50% or greater decrease in tumor diameter: None of the patients had a 50% or greater decrease in tumor diameter
  Transient tumor regression: Less pronounced transient tumor regression was noted in three patients
Malignant melanoma; 90-360 mg/m^2 every 2 weeks
  Disease in remaining patients: no change or progression in their disease
Malignant melanoma; fifteen patients
  Alopecia: 8 patients
  Diarrhea: 3 patients
  Hemorrhagic cystitis: 1 patients
  Myelosuppression: 11 patients
  Nausea and vomiting: 9 patients
[7]; 24 hours after SCPT, once daily×5, 6.5-20 mg/m^2/day
  Plasma camptothecin levels, relation to dose: plasma camptothecin levels have little relation to the dose given
[7]; patients with obvious renal disease excluded
  Severe toxic effects: Severe toxic effects including cystitis occurred

## COc1cc([C@@H]2c3cc4c(cc3[C@@H](O[C@@H]3O[C@@H]5CO[C@@H](C)O[C@H]5[C@H](O)[C@H]3O)[C@H]3COC(=O)[C@H]23)OCO4)cc(OC)c1O [etoposide]
[8]
  Bioavailability following oral administration: substantially equivalent to that achieved by intravenous administration
